# Reference: patent US20230293535A1, “ERBB/BTK INHIBITORS” (Dizal (Jiangsu) Pharmaceutical Co., Ltd., priority 2018, published 2023)
# Experiments:
# Format in all cases: cell-based
# [1] = system: Her2 exon 20 insertion YVMA transduced NIH-3T3 cell line; test: Cell proliferation, Her2 YVMAins NIH-3T3 (CellTiter-Glo, 72 h); settings: Mus musculus, NIH3T3, 72 h, Her2 YVMAins cells, 72 h proliferation; read-out: Her2 Exon 20 YVMA insertion GI50;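 further: viable cells quantified by ATP luminescence, growth over a day-zero baseline plate expressed as percent of DMSO control growth, compound dilution series in 10% FBS medium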
# EGFR L858R&T790M = molecular target: T1, EGFR L858R&T790M (Homo sapiens, UniProt P00533, L858R/T790M); test: EGFR L858R and T790M cellular phosphorylation inhibition in NCI-H1975 (MSD); settings: NCI-H1975 cells, 4 h compound, p-EGFR(Y1068)/total EGFR; read-out: EGFR L858R and T790M mutation IC50;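 further: phosphorylated and total EGFR detected by electrochemiluminescence, cells exposed to compound in medium containing 1% FBS at 37 °C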
# T1 construct: host or cells: NCI-H1975
# [2] = system: NCI-H1975 EGFR L858R/T790M cells; test: Cell proliferation, NCI-H1975 EGFR L858R/T790M (CellTiter-Glo, 72 h); settings: Homo sapiens, NCI-H1975, 72 h, NCI-H1975, 72 h proliferation; read-out: EGFR L858R and T790M mutation GI50;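 further: viable cells quantified by luciferase-based ATP luminescence, proliferation expressed relative to DMSO-treated wells (100%) after subtracting a parallel plate read at the time of dosing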
# Ba/F3 EGFR ASV ins cells = test: Cell proliferation, Ba/F3 EGFR ASV ins (CellTiter-Glo, 72 h); settings: Ba/F3 EGFR, 72 h, Ba/F3 EGFR ASV ins, 72 h proliferation; read-out: EGFR Exon20 ASV insertion GI50;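 further: IL3-independent Ba/F3 cells transduced with EGFR V769_D770insASV, cellular ATP luminescence after compound exposure, growth relative to DMSO control with the day-0 baseline reading subtracted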
# DB cells = test: BTK (wt) cell proliferation, DB (CellTiter-Glo, 72 h); settings: Homo sapiens, DB, DB cells, CellTiter-Glo, read-out: Non-BCR activated DB GI50;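 further: DB cells in 384-well plates given a dilution series of compound, viable cells read by ATP luminescence, growth expressed versus DMSO control after subtracting a time-zero plate reading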
# [3] = molecular target: T2, human Her2 exon 20 insertion mutation YVMA (Homo sapiens, UniProt P04626, INS775YVMA); test: Her2 Exon 20 YVMA insertion cellular phosphorylation inhibition (MSD p-Her2 Y1248/total Her2); settings: Her2 YVMAins cells, 4 h compound;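 further: lentivirally transduced NIH-3T3 cells in 1% FBS medium, electrochemiluminescent MSD read-out, graded compound concentrations at 37 °C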
# T2 construct: expressed in transfected cells; host or cells: NIH-3T3, lentiviral transduction, puromycin selection
# OCI-LY-10 cells = test: BTK (wt) cell proliferation, OCI-LY-10 (CellTiter-Glo, 72 h); settings: Homo sapiens, OCI-Ly10, 72 h, OCI-LY-10 cells, 72 h, CellTiter-Glo; read-out: BTK WT OCI-LY-10 GI50;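 further: viable cells quantified via cellular ATP luminescence, proliferation given as percent of DMSO control after subtracting a duplicate plate read at time of dosing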
# [4] = molecular target: T3, human EGFR exon 20 V769_D770insASV (Homo sapiens, UniProt P00533, INS769ASV); test: EGFR Exon20 ASV insertion cellular phosphorylation inhibition (MSD pEGFR Y1068/total EGFR); settings: Ba/F3 EGFR ASV ins cells, 4 h compound, p-EGFR(Y1068)/total EGFR;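 further: electrochemiluminescent readout on an MSD SECTOR Imager, IL3-independent transduced cells in medium with 1% FBS, compound concentration series at 37 °C and 5% CO2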
# T3 construct: expressed in transfected cells; host or cells: Ba/F3 (DSMZ ACC-300), lentiviral transduction, puromycin selection, IL3 depletion
# Method: To generate the EGFR exon 20 V769_D770insASV transduced Ba/F3 cell line, the parental Ba/F3 cells were infected with the recombinant EGFR V769_D770insASV lentivirus and then followed by 1 µg/ml of puromycin selection and IL3 depletion. The resulting cell line expresses constitutively phosphorylated EGFR protein and proliferates in the absence of IL3, which could be used for in vitro PD and anti-proliferation assays.
# One day before the test, WT or mutant cells were seeded in 96 well plates at appropriate concentrations with corresponding growth media supplemented with 1% FBS, and incubated overnight. The next day, tested compounds at a series of concentrations were added into each individual well of the plates, and the plates were incubated for 4 h at 37° C. with 5% CO2.
# The EGFR (Y1068) phosphorylation level (activity) of cells in each well were then measured with MSD kit named “MULTI-SPOT®96 4-Spot HB Prototype EGFR Triplex [sequence]: pEGFR(Tyr1068),pEGFR(Tyr1173), Total EGFR” according to the manufacturer’s instruction (MESO SCALE DISCOVERY, Cat# N45ZB-1). The assay is an electrochemiluminescent method for determining both phosphorylated and total EGFR of cells with an MSD SECTOR® Imager and the ratio of p-EGFR/total EGFR can be generated by the machine. The Her2 (Y1248) phosphorylation level (activity) of cells in each well were measured with MSD Kit named “Phospho-ErbB2 (Tyr1248) Assay Whole Cell Lysate Kit” according to the manufacturer’s instruction (MESO SCALE DISCOVERY, Cat# K151CLD-3). The assay is an electrochemiluminescent method (MESO SCALE DISCOVERY) for determining both phosphorylated and total Her2 of cells with an MSD SECTOR® Imager and then the ratio of p-Her2/total Her2 can be generated by the machine.
# WT EGFR cell line A-431 = test: Cell proliferation, WT EGFR A431 (CellTiter-Glo, 72 h); settings: Homo sapiens, A-431, 72 h, A431, 72 h proliferation; read-out: EGFR WT A431 GI50;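 further: proliferation from a luminescent ATP viability signal, expressed as 100 × (treated minus time-zero plate) over (DMSO control minus time-zero plate), cells grown with 10% FBS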
# Ri-1 cells = test: BTK (wt) cell proliferation, Ri-1 (CellTiter-Glo, 72 h); settings: Ri-1, 72 h, Ri-1 cells, 72 h, CellTiter-Glo; read-out: BTK WT Ri-1 GI50;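 further: viable cells quantified as cellular ATP luminescence, proliferation normalized to a time-zero plate and the DMSO control, compounds tested across a dilution series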
# WT EGFR = molecular target: T4, WT EGFR (Homo sapiens, UniProt P00533); test: WT EGFR cellular phosphorylation inhibition in A-431 (hEGF stimulated, MSD); settings: A431 cells, 4 h compound, then 100 ng/ml hEGF 10 min;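 further: electrochemiluminescence read-out of EGFR Tyr1068 phosphorylation expressed as ratio to total EGFR, cells kept in medium with 1% FBS, compounds tested as a concentration series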
# T4 construct: host or cells: A-431
# [5] = molecular target: T5, human EGFR exon 20 H773_V774insNPH (Homo sapiens, UniProt P00533, INS773NPH); test: EGFR Exon20 NPH insertion cellular phosphorylation inhibition (MSD pEGFR Y1068/total EGFR); settings: Ba/F3 EGFR NPH ins cells, 4 h compound, p-EGFR(Y1068)/total EGFR;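 further: IL3-independent Ba/F3 cells with constitutively phosphorylated EGFR, compound exposure at 37 °C under 5% CO2, electrochemiluminescent MSD measurement of the p-EGFR to total EGFR ratio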
# T5 construct: host or cells: Ba/F3
# TMD-8 cells = test: BTK (wt) cell proliferation, TMD-8 (CellTiter-Glo, 72 h); settings: Homo sapiens, TMD8, 72 h, TMD-8 cells, 72 h, CellTiter-Glo; read-out: BTK WT TMD-8 GI50;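 further: viable cells quantified by ATP-based luminescence, proliferation expressed as percent of DMSO control after subtracting a time-zero baseline plate read at dosing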
# Ba/F3 EGFR NPH ins cells = test: Cell proliferation, Ba/F3 EGFR NPH ins (CellTiter-Glo, 72 h); settings: Ba/F3 EGFR, 72 h, Ba/F3 EGFR NPH ins, 72 h proliferation; read-out: EGFR Exon20 NPH insertion GI50;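 further: IL3-independent cells carrying constitutively phosphorylated EGFR, compound dilution series, viable cells quantified by ATP luminescence, growth relative to DMSO wells after subtracting pre-dosing (day 0) baseline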
# T5 sequence (P00533 with tags, fused parts or gaps INS773NPH): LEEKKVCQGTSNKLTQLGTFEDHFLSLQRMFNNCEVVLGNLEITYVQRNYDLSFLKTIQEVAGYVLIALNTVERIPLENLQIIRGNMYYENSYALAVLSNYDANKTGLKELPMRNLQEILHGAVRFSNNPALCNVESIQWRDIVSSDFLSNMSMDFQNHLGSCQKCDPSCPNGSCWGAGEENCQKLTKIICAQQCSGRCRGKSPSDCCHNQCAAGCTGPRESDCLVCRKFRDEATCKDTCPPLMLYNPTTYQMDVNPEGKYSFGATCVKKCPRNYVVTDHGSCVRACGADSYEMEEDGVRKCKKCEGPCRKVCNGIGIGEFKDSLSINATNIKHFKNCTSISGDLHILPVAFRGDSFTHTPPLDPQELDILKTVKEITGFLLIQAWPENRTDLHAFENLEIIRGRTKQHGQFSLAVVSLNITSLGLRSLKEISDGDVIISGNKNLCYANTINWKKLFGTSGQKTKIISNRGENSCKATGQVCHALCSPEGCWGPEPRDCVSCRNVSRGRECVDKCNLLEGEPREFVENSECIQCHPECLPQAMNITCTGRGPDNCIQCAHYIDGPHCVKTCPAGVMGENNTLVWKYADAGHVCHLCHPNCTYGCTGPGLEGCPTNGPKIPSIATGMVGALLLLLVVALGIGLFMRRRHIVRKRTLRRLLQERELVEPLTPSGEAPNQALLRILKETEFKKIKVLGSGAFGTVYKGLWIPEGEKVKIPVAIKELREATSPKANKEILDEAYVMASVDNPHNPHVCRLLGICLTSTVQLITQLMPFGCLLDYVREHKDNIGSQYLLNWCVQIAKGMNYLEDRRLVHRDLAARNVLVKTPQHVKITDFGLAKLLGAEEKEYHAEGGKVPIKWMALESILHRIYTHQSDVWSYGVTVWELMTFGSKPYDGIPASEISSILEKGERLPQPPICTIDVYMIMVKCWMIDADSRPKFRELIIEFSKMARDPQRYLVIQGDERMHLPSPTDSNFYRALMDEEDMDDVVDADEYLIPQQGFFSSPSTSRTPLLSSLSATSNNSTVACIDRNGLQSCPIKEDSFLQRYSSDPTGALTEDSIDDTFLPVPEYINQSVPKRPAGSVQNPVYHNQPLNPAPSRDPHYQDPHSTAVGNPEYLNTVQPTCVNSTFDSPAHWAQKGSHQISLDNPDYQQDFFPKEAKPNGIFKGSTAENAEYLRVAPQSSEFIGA
# T3 sequence (P00533 with tags, fused parts or gaps INS769ASV): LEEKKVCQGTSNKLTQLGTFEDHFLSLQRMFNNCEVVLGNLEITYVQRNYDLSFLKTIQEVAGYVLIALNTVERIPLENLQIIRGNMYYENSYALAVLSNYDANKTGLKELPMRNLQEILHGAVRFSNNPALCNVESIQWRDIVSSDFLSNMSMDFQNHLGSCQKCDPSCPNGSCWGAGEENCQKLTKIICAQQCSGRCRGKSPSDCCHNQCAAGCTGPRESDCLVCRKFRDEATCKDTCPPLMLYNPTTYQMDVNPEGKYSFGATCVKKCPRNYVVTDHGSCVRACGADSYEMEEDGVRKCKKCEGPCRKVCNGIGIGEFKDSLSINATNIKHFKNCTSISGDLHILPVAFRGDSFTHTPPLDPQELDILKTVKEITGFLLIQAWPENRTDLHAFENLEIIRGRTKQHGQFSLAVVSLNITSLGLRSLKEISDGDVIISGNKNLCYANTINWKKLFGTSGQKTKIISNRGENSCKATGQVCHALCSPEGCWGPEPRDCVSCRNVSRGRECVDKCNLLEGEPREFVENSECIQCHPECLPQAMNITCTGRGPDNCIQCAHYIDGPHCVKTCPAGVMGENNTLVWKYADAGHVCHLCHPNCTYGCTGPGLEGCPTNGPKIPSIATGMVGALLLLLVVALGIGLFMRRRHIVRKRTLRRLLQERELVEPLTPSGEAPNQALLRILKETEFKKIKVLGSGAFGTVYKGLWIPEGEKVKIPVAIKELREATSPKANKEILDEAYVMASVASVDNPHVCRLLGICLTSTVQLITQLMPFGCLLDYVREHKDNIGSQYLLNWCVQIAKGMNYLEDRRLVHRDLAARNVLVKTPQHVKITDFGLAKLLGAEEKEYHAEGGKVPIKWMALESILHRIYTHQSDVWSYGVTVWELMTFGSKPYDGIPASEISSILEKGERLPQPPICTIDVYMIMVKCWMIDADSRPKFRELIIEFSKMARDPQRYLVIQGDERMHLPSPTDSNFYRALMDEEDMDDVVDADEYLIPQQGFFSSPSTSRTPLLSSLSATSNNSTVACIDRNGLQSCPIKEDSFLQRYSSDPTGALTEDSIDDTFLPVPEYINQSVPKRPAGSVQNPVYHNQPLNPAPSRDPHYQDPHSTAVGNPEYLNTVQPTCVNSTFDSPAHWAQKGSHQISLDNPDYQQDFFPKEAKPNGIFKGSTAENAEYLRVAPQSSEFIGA
# T1 sequence (P00533 25-1210 T790M/L858R): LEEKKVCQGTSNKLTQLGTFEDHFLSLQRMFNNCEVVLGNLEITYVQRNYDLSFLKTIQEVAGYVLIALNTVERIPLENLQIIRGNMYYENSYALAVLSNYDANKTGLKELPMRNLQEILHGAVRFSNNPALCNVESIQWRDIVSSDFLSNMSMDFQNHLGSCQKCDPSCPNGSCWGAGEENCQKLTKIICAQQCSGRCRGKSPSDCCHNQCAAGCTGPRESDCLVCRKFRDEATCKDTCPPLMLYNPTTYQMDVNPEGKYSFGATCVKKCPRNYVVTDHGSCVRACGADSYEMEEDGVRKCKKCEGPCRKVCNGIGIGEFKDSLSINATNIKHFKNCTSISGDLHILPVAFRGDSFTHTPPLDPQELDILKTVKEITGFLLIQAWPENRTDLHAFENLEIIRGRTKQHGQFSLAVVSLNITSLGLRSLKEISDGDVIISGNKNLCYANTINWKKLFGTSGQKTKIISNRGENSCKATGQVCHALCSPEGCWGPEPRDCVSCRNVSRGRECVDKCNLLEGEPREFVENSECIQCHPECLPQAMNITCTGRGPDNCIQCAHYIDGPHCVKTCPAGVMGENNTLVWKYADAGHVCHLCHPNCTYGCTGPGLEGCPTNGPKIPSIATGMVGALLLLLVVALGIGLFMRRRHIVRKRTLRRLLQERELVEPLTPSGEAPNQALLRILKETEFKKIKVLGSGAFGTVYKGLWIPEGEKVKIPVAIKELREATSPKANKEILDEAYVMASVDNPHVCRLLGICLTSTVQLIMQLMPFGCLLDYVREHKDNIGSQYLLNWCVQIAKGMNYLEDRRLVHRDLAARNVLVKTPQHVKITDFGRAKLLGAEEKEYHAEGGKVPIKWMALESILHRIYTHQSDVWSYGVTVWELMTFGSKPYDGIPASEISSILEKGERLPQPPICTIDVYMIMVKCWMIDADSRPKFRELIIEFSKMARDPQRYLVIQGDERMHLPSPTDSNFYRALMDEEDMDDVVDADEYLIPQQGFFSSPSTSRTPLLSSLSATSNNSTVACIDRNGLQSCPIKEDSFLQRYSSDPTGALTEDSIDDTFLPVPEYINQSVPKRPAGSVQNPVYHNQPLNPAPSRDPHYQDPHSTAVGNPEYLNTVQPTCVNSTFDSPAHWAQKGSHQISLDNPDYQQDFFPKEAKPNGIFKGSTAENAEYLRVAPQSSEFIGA
# T2 sequence (P04626 with tags, fused parts or gaps INS775YVMA): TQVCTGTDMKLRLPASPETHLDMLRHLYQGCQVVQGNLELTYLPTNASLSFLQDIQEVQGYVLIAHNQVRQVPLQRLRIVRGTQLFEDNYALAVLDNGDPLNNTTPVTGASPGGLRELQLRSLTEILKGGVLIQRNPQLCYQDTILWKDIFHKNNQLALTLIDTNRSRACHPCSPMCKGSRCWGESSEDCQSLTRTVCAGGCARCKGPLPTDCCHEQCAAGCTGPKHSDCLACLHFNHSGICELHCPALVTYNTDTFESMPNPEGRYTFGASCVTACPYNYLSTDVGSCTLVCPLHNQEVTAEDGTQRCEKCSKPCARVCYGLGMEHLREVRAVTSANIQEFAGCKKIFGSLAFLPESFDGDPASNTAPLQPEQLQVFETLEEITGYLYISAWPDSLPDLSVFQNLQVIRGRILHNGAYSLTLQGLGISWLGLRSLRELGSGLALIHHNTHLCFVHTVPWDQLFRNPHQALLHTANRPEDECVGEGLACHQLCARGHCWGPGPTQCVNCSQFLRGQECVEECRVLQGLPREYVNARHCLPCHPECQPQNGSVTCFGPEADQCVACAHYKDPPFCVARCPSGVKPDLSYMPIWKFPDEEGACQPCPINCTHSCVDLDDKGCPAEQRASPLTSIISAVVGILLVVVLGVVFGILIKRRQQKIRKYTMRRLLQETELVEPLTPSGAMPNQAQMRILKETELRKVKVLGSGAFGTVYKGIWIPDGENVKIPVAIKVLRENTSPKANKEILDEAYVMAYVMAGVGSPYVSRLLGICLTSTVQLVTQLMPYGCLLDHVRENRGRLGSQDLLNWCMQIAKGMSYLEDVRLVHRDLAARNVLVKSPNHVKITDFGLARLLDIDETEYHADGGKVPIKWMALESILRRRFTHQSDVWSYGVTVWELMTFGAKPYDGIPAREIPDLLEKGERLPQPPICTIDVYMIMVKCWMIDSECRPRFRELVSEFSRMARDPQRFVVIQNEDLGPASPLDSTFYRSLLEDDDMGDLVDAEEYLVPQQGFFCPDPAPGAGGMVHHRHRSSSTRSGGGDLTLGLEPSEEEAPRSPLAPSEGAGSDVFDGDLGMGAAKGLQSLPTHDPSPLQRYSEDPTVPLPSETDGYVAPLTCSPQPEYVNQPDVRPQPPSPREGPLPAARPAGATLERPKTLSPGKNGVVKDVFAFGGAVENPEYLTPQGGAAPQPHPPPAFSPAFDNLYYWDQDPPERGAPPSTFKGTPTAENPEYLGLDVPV
SMILES,GI50 [1] [nM],IC50 (EGFR L858R&T790M) [nM],GI50 [2] [nM],GI50 (Ba/F3 EGFR ASV ins cells) [nM],GI50 (DB cells) [nM],IC50 [3] [nM],GI50 (OCI-LY-10 cells) [nM],IC50 [4] [nM],GI50 (WT EGFR cell line A-431) [nM],GI50 (Ri-1 cells) [nM],IC50 (WT EGFR) [nM],IC50 [5] [nM],GI50 (TMD-8 cells) [nM],GI50 (Ba/F3 EGFR NPH ins cells) [nM]
"C=CC(=O)Nc1cc(Nc2ncnc(Nc3cc(F)c(Cl)cc3C(C)(C)O)n2)c(OC)cc1N1CC[C@@H]2CN(C)C[C@@H]21 [Compound 41, N-(5-(4-(4-chloro-5-fluoro-2-(2-hydroxypropan-2-yl)phenylamino)-1,3,5-triazin-2-ylamino)-4-methoxy-2-((3aR,6aR)-5-methylhexahydropyrrolo[3,4-b]pyrrol-1 (2H)-yl)phenyl)acrylamide]",52.1,0.8,1.6,21.8,> 3000,9,1.57,6.7,13.8,4.92,13.1,12.6,4.57,23.2
"C=CC(=O)Nc1cc(Nc2ncnc(Nc3cc(F)c(Cl)cc3C(C)(C)O)n2)c(OC)cc1N1CCC[C@@H]1CN(C)C [Compound 43, (R)-N-(5-(4-(4-chloro-5-fluoro-2-(2-hydroxypropan-2-yl)phenylamino)-1,3,5-triazin-2-ylamino)-2-(2-((dimethylamino)methyl)pyrrolidin-1-yl)-4-methoxyphenyl)acrylamid]",27.6,0.3,1.2,9.3,> 3000,2.9,7.6,5.9,4.3,28.5,8.1,3.9,13.6,17.4
"C=CC(=O)Nc1cc(Nc2ncnc(Nc3cc(Cl)c(F)cc3C(C)(C)O)n2)c(OC)cc1N(C)C[C@@H]1CCCN1C [Compound 44, (S)-N-(5-(4-(5-chloro-4-fluoro-2-(2-hydroxypropan-2-yl)phenylamino)-1,3,5-triazin-2-ylamino)-4-methoxy-2-(methyl((1-methylpyrrolidin-2-yl)methyl)amino)phenyl) acrylamide]",74.6,0.5,3.6,29.8,> 3000,8,6.75,12.5,14.8,10.4,30.9,6.8,4.32,39
"C=CC(=O)Nc1cc(Nc2ncnc(Nc3cc(F)c(C4CC4)cc3C(C)(C)O)n2)c(OC)cc1N1CC[C@@H]2CN(C)C[C@@H]21 [Compound 45, N-(5-(4-(4-cyclopropyl-5-fluoro-2-(2-hydroxypropan-2-yl)phenylamino)-1,3,5-triazin-2-ylamino)-4-methoxy-2-((3aR,6aR)-5-methylhexahydropyrrolo[3,4-b]pyrrol-1(2H)-yl)phenyl)acrylamide]",30.8,0.3,1.1,13.6,> 3000,3,5.25,6.5,4.3,11.6,7.6,2.9,2.33,17.8
"C=CC(=O)Nc1cc(Nc2ncnc(Nc3cc(F)c(C4CC4)cc3C(C)(C)O)n2)c(OC)cc1N1CCC[C@@H]1CN(C)C [Compound 46, (R)-N-(5-(4-(4-cyclopropyl-5-fluoro-2-(2-hydroxypropan-2-yl)phenylamino)-1,3,5-triazin-2-ylamino)-2-(2-((dimethylamino)methyl)pyrrolidin-1-yl)-4-methoxyphenyl)acrylamide]",16.8,0.2,1.4,8.2,2580,1.7,2.97,6.4,4.5,6.49,8.7,2.5,0.9,18.8
"C=CC(=O)Nc1cc(Nc2ncnc(Nc3cc(F)c(F)cc3C(C)(O)CC)n2)c(OC)cc1N1CC[C@@H]2CN(C)C[C@@H]21 (stereo partly drawn) [Compound 47, N-(5-(4-(4,5-difluoro-2-(2-hydroxybutan-2-yl)phenylamino)-1,3,5-triazin-2-ylamino)-4-methoxy-2-((3aR,6aR)-5-methylhexahydropyrrolo[3,4-b]pyrrol-1(2H)-yl)phenyl) acrylamide]",34.1,0.3,1.9,22.1,> 3000,4.4,775,10.1,10.9,208,23.8,5.6,55.3,27.1
"C=CC(=O)Nc1cc(Nc2ncnc(Nc3cc(F)c(F)cc3C(C)(O)CC)n2)c(OC)cc1N1CC[C@@H](N(C)C)C1 (stereo partly drawn) [Compound 48, N-(5-(4-(4,5-difluoro-2-(2-hydroxybutan-2-yl)phenylamino)-1,3,5-triazin-2-ylamino)-2-((R)-3-(dimethylamino)pyrrolidin-1-yl)-4-methoxyphenyl)acrylamide]",57.9,0.4,3.2,29.1,> 3000,2.8,14.1,16.2,14.1,371,28.4,11.1,70.2,57.9
"C=CC(=O)Nc1cc(Nc2ncnc(Nc3cc(F)c(F)cc3C(C)(O)CC)n2)c(OC)cc1N(C)CCN(C)C (centres unmarked) [Compound 49, N-(5-(4-(4,5-difluoro-2-(2-hydroxybutan-2-yl)phenylamino)-1,3,5-triazin-2-ylamino)-2-((2-(dimethylamino)ethyl)(methyl)amino)-4-methoxyphenyl)acr ylamide]",36.1,0.5,1.5,31.9,> 3000,6.2,1250,9.6,15.3,566,22.8,19.6,107,31.6
"C=CC(=O)Nc1cc(Nc2ncnc(Nc3cc(Cl)c(Cl)cc3C(C)(C)O)n2)c(OC)cc1N1CC[C@@H]1CN(C)C [Compound 54, (R)-N-(5-(4-(4,5-dichloro-2-(2-hydroxypropan-2-yl)phenylamino)-1,3,5-triazin-2-ylamino)-2-(2-((dimethylamino)methyl)azetidin-1-yl)-4-methoxyphenyl)acrylamide]",210,2.4,6.1,104,> 3000,14.2,4.42,39.4,41.3,9.97,60.5,29.9,3.62,68
"C=CC(=O)Nc1cc(Nc2ncnc(Nc3cc(F)c(F)cc3C(C)(O)CC)n2)c(OC)cc1N1CC[C@@H]1CN(C)C (stereo partly drawn) [Compound 55, N-(5-(4-(4,5-difluoro-2-(2-hydroxybutan-2-yl)phenylamino)-1,3,5-triazin-2-ylamino)-2-((R)-2-((dimethylamino)methyl)azetidin-1-yl)-4-methoxyphenyl)acrylamide]",88.9,0.8,3.8,44.1,> 3000,8.4,6.68,9.8,14.6,12,30.9,20.1,11.5,62.6
